According to article PMC4965013, “Open Source Drug Discovery with the Malaria Box Compound Collection for Neglected Diseases and Beyond” (PLoS Pathogens, 2016):
Like-named read-outs stand apart in the source and are kept apart here.

Assays:
[1] = tested on: P. falciparum NF54 late-stage gametocytes; details: 5 µM; ref [55]; cited from earlier work
[2] = tested on: Trypanosoma brucei rhodesiense STIB 900; details: ref [84]; cited from earlier work
[3] = tested on: Onchocerca lienalis microfilariae; test: Onchocerca lienalis microfilariae motility; format: cell-based; details: 12.5µM
Experimental: Column DW: Townson group (data presented first in this paper). Screening of Onchocerca lienalis microfilariae for motility inhibition in microplates. Methods: Microfilariae are obtained from samples of peri-umbilical skin of freshly slaughtered, naturally infected cattle in the UK. […] The results are then calculated as motility index scores and expressed as a percentage of the maximum obtainable. […] Merial) were immotile at the end of the trial.

P. falciparum 3D7 or K1 = test: Asexual Blood Stage Imaging Assay (DAPI) V. Avery; format: cell-based; details: Plasmodium falciparum; 5µM; read-out: P. falciparum 3D7 asexual blood stage % inhibition (Image)
[4] = tested on: P. falciparum in vitro translation; parameters: method as in ref [19] (a number printed in a supplementary file, which may have a reference list of its own: not looked up in the article's list); details: 1 µM; ref [19]; cited from earlier work
[5] = tested on: P. falciparum Stage V male and female gametocytes; parameters: method as in ref [74] (a number printed in a supplementary file, which may have a reference list of its own: not looked up in the article's list); details: 1µM; ref [74]; cited from earlier work
[6] = Mouse oral PK single dose; format: in vivo; details: male, CD-1, mouse, plasma, 140 umol/kg; 140 μmol/kg oral
Experimental: Columns GD-GJ: Wuxi Inc. data for MMV (data presented first in this paper) PK/DMPK Parameters: Fasted animals (Male CD-1 mouse, 7-9 weeks age, 30±10 g, n=3) obtained from an approved vendor (SLAC Laboratory Animal Co. Ltd., Shanghai, China or Sino-British SIPPR/BK Laboratory Animal Co. Ltd Shanghai, China) were administered with a single oral dose (140 μmol/kg) using DMSO: 1% HPMC (5:95) as a vehicle. Blood sampling was performed via the submandibular or saphenous vein (t=0.083, 0.25, 1, 2, 4, 6 and 9 h) and transferred into microcentrifuge tubes containing Sodium Heparin (1,000 IU/ml) as anti-coagulant placed on wet ice until processed for plasma by centrifugation at approximately 4°C, 3000×g for 15 min. Plasma samples were stored in polypropylene tubes, quick frozen over dry ice and kept at -70±10°C until LC/MS/MS analysis. LC/MS/MS methods for the quantitative determination compounds plasma levels were developed with an internal standard. […] (Phoenix WinNonlin, version 6.2.1, Pharsight, Mountain View, CA) and expressed as Cmax & AUC0-last. […] AUC0-last is the area under the curve expressed as >12 h*μM (Yes or No). Plasma protein binding assay (PPB) (CD-1 mouse and human) expressed as <95% bound, >95% bound, or >99% bound. Kinetic Solubility at pH 7.4 was determined by liquid chromatography/chemiluminescence nitrogen detection (LC/CLND) and was scored as greater than 20µM (Yes or No). hERG inhibition was measured at 11µM by the QPatch- HT system and is expressed as “Yes” if greater than 45% inhibited at 11µM and “No” if less than or equal to 45% inhibited at 11µM. As part of the Drug-Drug Interaction studies (DDI issues), 5 human and 1 mouse CYP isoforms (1A2, 2C9, 2C19, 2D6, 3A4-M, 3A4-T) were tested for inhibition assay at 10 µM. […] Otherwise DDI issues were scored as “No”. Positive and negative controls were run for each assay (Table 1).

[7] = tested on: Leishmania donovani axenic amastigotes; test: L. donovani axenic amastigotes Scynexis; format: cell-based
[8] = tested on: P. falciparum NF54Pfs16 gametocytes stage IV-V; details: 5µM; ref [62]; cited from earlier work
[9] = tested on: Naegleria fowleri trophozoites; test: Naegleria fowleri CellTiter-Glo; format: cell-based; details: 1µM
Method in brief: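 Growth inhibition of Naegleria fowleri trophozoites in vitro, read as cellular ATP by CellTiter-Glo 2.0 luminescence in lysed cells, output in relative light units.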

P. berghei ookinetes [10] = tested on: P. berghei ookinetes; parameters: method as in ref [74] (a number printed in a supplementary file, which may have a reference list of its own: not looked up in the article's list); details: 1µM; ref [74]; cited from earlier work
P. berghei ookinetes [11] = test: P. berghei Ookinete Development Assay (Pb ODA); format: cell-based; details: Plasmodium berghei
Source text: Columns BX- CA, CD-DF: Delves, Ruecker, & Sinden group (Data and methods published in ref [82] except Column CE which is new data) The data represent our primary screening data in the P. falciparum Dual Gamete formation assay (Pf DGFA). They show the functional viability of mature Stage V male and female gametocytes as reported by their ability to undergo gamete formation as reported in the reference. Column CD represents primary screening data in the P. berghei Ookinete Development Assay (Pb ODA) at 1 µM as reported in the reference. Column CE represents a parallel screen in the Pb ODA at 10 µM that has not been published.

[12] = tested on: P. falciparum NF54Pfs16 gametocytes stage I-III; details: ref [61], cited from earlier work
[13] = tested on: P. falciparum NF54 GFP-Pfs16 gametocytes stage I-III; details: ref [64], cited from earlier work
[14] = tested on: P. falciparum NF54 gametocytes stage IV/V; test: Gametocyte PrestoBlue resazurin assay Mancama; format: cell-based; details: Plasmodium falciparum, NF54; 5µM; read-out: NF54 gametocyte Late Stage IV/V Resazurin %inhibition
[15] = tested on: primary human hepatocytes; test: MPCC hepatotoxicity (albumin, urea, morphology); format: cell-based; details: 10µM
[16] = tested on: P. falciparum W2 apicoplast; details: 5µM compound; ref [54]; cited from earlier work

CCN1CCN(c2cc(C)c3cc(NC(=O)c4ccc(OC)c(OC)c4)ccc3n2)CC1 [MMV019074]
gametocyte NF54 late stage (IV-V) % inhibition Cassera [1]: 27%
EC50 [2]: 3.22 µM
Onchocerca lienalis % motility [3]: 100%
inhibition at 5 µM (P. falciparum 3D7 or K1): 99%
Translation Inhibitors (nl = 1.0, in vitro translation with P. falciparum lysate) [4]: 0.94
Male gametocyte Stage V % inhibition of gamete formation [5]: -3.72%
female gametocyte Stage V % inhibition of gamete formation [5]: -9%
AUC [6]: < 12 µM·h
Cmax [6]: > 1000 nM
inhibition at 5 µM [7]: -34%
gametocyte late stage (IV-V) luciferase % inhibition [8]: -9%
Naegleria fowleri % growth [9]: 88%
P. berghei ookinete assay % inhibition (P. berghei ookinetes [10]): -2.9%
inhibition at 10 µM (P. berghei ookinetes [11]): 43%
gametocyte early stage (I-III) luciferase % inhibition ([12]; 0.5µM): -13%
gametocyte early stage (I-III) luciferase % inhibition ([12]; 2.5µM): -14%
gametocyte early stage (I-III) luciferase % inhibition ([12]; 5µM): -6.56%
gametocyte early stage (I-III) GFP-MTR % inhibition ([13]; 0.5µM): 11%
gametocyte early stage (I-III) GFP-MTR % inhibition ([13]; 5µM): 14%
inhibition at 5 µM [14]: 64%
Human hepatocyte Urea synthesis, 1.0 normal [15]: 0.58
Human hepatocyte albumin synthesis, 1.0 normal [15]: 0.51

COc1ccc(C(=O)Nc2ccc3nc(N4CCCCC4)cc(C)c3c2)cc1OC [MMV019758]
gametocyte NF54 late stage (IV-V) % inhibition Cassera [1]: 56%
EC50 [2]: 10.9 µM
Onchocerca lienalis % motility [3]: 100%
inhibition at 5 µM (P. falciparum 3D7 or K1): 76%
Translation Inhibitors (nl = 1.0, in vitro translation with P. falciparum lysate) [4]: 0.98
Male gametocyte Stage V % inhibition of gamete formation [5]: 10%
female gametocyte Stage V % inhibition of gamete formation [5]: -48%
AUC [6]: > 12 µM·h
Cmax [6]: > 1000 nM
inhibition at 5 µM [7]: -50%
Naegleria fowleri % growth [9]: 87%
P. berghei ookinete assay % inhibition (P. berghei ookinetes [10]): -18.9%
inhibition at 10 µM (P. berghei ookinetes [11]): 35.4%
gametocyte early stage (I-III) luciferase % inhibition ([12]; 0.5µM): -7%
gametocyte early stage (I-III) luciferase % inhibition ([12]; 2.5µM): -13%
gametocyte early stage (I-III) luciferase % inhibition ([12]; 5µM): -5.6%
P. falciparum (W2) asexual growth: ratio w & wout 200µM IPP [16]: 0.79
gametocyte early stage (I-III) GFP-MTR % inhibition ([13]; 0.5µM): -8%
gametocyte early stage (I-III) GFP-MTR % inhibition ([13]; 5µM): 8%
inhibition at 5 µM [14]: 18%
Human hepatocyte Urea synthesis, 1.0 normal [15]: 0.66
Human hepatocyte albumin synthesis, 1.0 normal [15]: 0.58

CCN(CC)c1cc(C)c2cc(NC(=O)c3cccc(OC)c3)ccc2n1 [MMV000498]
gametocyte NF54 late stage (IV-V) % inhibition Cassera [1]: 47%
EC50 [2]: 0.679 µM
Onchocerca lienalis % motility [3]: 100%
inhibition at 5 µM (P. falciparum 3D7 or K1): 97%
Translation Inhibitors (nl = 1.0, in vitro translation with P. falciparum lysate) [4]: 0.87
Male gametocyte Stage V % inhibition of gamete formation [5]: -1.33%
female gametocyte Stage V % inhibition of gamete formation [5]: -22%
AUC [6]: > 12 µM·h
Cmax [6]: > 1000 nM
inhibition at 5 µM [7]: -65%
gametocyte late stage (IV-V) luciferase % inhibition [8]: -3.24%
Naegleria fowleri % growth [9]: 80%
P. berghei ookinete assay % inhibition (P. berghei ookinetes [10]): -7.5%
inhibition at 10 µM (P. berghei ookinetes [11]): -0.6%
gametocyte early stage (I-III) luciferase % inhibition ([12]; 0.5µM): -15%
gametocyte early stage (I-III) luciferase % inhibition ([12]; 2.5µM): -18%
gametocyte early stage (I-III) luciferase % inhibition ([12]; 5µM): -3.81%
P. falciparum (W2) asexual growth: ratio w & wout 200µM IPP [16]: 1.10
gametocyte early stage (I-III) GFP-MTR % inhibition ([13]; 0.5µM): 15%
gametocyte early stage (I-III) GFP-MTR % inhibition ([13]; 5µM): 16%
inhibition at 5 µM [14]: 70%
Human hepatocyte Urea synthesis, 1.0 normal [15]: 0.65
Human hepatocyte albumin synthesis, 1.0 normal [15]: 0.57

COc1cc2cc(C(=O)Nc3ccccc3)c(N)nc2cc1OC [MMV006767]
gametocyte NF54 late stage (IV-V) % inhibition Cassera [1]: 7%
Onchocerca lienalis % motility [3]: 100%
inhibition at 5 µM (P. falciparum 3D7 or K1): 99%
Translation Inhibitors (nl = 1.0, in vitro translation with P. falciparum lysate) [4]: 0.75
Male gametocyte Stage V % inhibition of gamete formation [5]: 22%
female gametocyte Stage V % inhibition of gamete formation [5]: -10%
AUC [6]: > 12 µM·h
Cmax [6]: > 1000 nM
inhibition at 5 µM [7]: -49%
gametocyte late stage (IV-V) luciferase % inhibition [8]: 2%
Naegleria fowleri % growth [9]: 95%
P. berghei ookinete assay % inhibition (P. berghei ookinetes [10]): 8.6%
inhibition at 10 µM (P. berghei ookinetes [11]): 39.4%
gametocyte early stage (I-III) luciferase % inhibition ([12]; 0.5µM): -7%
gametocyte early stage (I-III) luciferase % inhibition ([12]; 2.5µM): 7.41%
gametocyte early stage (I-III) luciferase % inhibition ([12]; 5µM): 19%
gametocyte early stage (I-III) GFP-MTR % inhibition ([13]; 0.5µM): 17%
gametocyte early stage (I-III) GFP-MTR % inhibition ([13]; 5µM): 99%
inhibition at 5 µM [14]: 0%
Human hepatocyte Urea synthesis, 1.0 normal [15]: 1.00
Human hepatocyte albumin synthesis, 1.0 normal [15]: 0.82

CCOC(=O)c1cnc2ccc(OC)cc2c1NCc1ccccc1 [MMV665813]
gametocyte NF54 late stage (IV-V) % inhibition Cassera [1]: 36%
EC50 [2]: 4.95 µM
Onchocerca lienalis % motility [3]: 100%
inhibition at 5 µM (P. falciparum 3D7 or K1): 97%
Translation Inhibitors (nl = 1.0, in vitro translation with P. falciparum lysate) [4]: 1.47
Male gametocyte Stage V % inhibition of gamete formation [5]: -13%
female gametocyte Stage V % inhibition of gamete formation [5]: -41%
AUC [6]: < 12 µM·h
Cmax [6]: < 1000 nM
inhibition at 5 µM [7]: 52%
gametocyte late stage (IV-V) luciferase % inhibition [8]: 5.69%
Naegleria fowleri % growth [9]: 91%
P. berghei ookinete assay % inhibition (P. berghei ookinetes [10]): -6.8%
inhibition at 10 µM (P. berghei ookinetes [11]): 33.4%
gametocyte early stage (I-III) luciferase % inhibition ([12]; 0.5µM): -13%
gametocyte early stage (I-III) luciferase % inhibition ([12]; 2.5µM): -10%
gametocyte early stage (I-III) luciferase % inhibition ([12]; 5µM): -8%
P. falciparum (W2) asexual growth: ratio w & wout 200µM IPP [16]: 0.72
gametocyte early stage (I-III) GFP-MTR % inhibition ([13]; 0.5µM): 26%
gametocyte early stage (I-III) GFP-MTR % inhibition ([13]; 5µM): 17%
inhibition at 5 µM [14]: 0%
Human hepatocyte Urea synthesis, 1.0 normal [15]: 0.81
Human hepatocyte albumin synthesis, 1.0 normal [15]: 0.93
